In US20260167614A1, “IDENTIFICATION OF SMALL MOLECULES THAT RECRUIT AND ACTIVATE RNASE L” (UNIVERSITY OF FLORIDA RESEARCH FOUNDATION, INCORPORATED, priority 2022, published 2026):

Columns and labels:
Format in all cases: cell-based
[1] = system: miR-21; assay: Global miRNA profiling in MDA-MB-231 cells; settings: 377 miRNAs
Description: (§1) Two CRISPR-modified MDA-MB-231 cell lines with either a scrambled control guide RNA (“Control sgRNA”; RNase L is expressed) or with an RNase L-targeting guide RNA (“RNase L-Targeting sgRNA”; RNase L protein abundance is knocked down) were used to complete these studies.
For global miRNA profiling experiments, RT was completed using 2 μg total RNA and a Mir-X miRNA First Strand Synthesis Kit (Takara) in a total volume of 20 μL. The RT reaction was then plated into the wells of a 384-well qPCR plate containing pre-diluted forward and reverse primers for the miRNA of interest. RT-qPCR was performed on a QuantStudio5™ Real-Time PCR Instrument (Applied Biosystems) using Power SYBR Green Master Mix (Applied Biosystems). Data were analyzed using the ΔΔCt method,^11 followed by calculation of log 2 fold changes and −log 10 p-values. The software Perseus was used to calculate the false discovery rate (FDR) of 1% with a group variance of S0(0.1).

[2] = system: PDCD4; assay: Western blot of PDCD4
Description: RiboTAC 7 was then assessed for its ability to affect protein levels by deactivation of a miR-21-mediated cancer circuit, i.e., derepression of PDCD4. […] Proteome-wide analysis was also completed to study the effects of 7 and a locked nucleic acid (LNA) oligonucleotide that targets miR-21-5p on the proteome. The concentrations tested of both provided similar activity (5 nM of 7 and 100 nM of the LNA), as assessed by their effect on PDCD4 levels, ˜40% enhancement. […] Neither modality affected proteins that are direct targets of miRNA let-7b-5p, further supporting that RiboTAC 7 is selectively deactivating a miR-21-mediated cancer circuit in cells (FIG. 11C-11D).
Quantification of Protein Levels by Western Blotting. MDA-MB-231 cells were treated as described in “Cell Culture.” After treatment, the medium was removed, and the cells were washed with 1× Dulbecco's phosphate-buffered saline (DPBS). Total protein was extracted using Mammalian Protein Extraction Reagent (M-PER, Thermo Scientific) according to the manufacturer's protocol. Protein concentration was measured using a Pierce Micro BCA Protein Assay kit (Fisher Scientific). […]
Western blots were quantified using ImageJ (National Institutes of Health).^12 Protein expression was normalized to […] abundance. […]

[3] = system: mature miR-21; assay: RT-qPCR of mature miR-21 in CRISPR-Control sgRNA MDA-MB-231 cells; settings: 5 μM, 48 h treatment, RNase L expressed
Description: as §1
MDA-MB-231 cells were treated with compound (0.1% DMSO final concentration) for 24 h, followed by removal of the compound-containing medium and redosing in growth medium for an additional 24 h (total treatment period of 48 h), with the exception of invasion assays in which the cells were treated overnight. For the time-course experiment, MDA-MB-231 cells were treated for the indicated lengths of time. MCF-10A cells, also used in invasion assays, were treated with compound overnight (0.1% DMSO final concentration).
RNA Isolation and Quantitative Real-Time Polymerase Chain Reaction (RT-qPCR). MDAMB-231 cells were cultured as described in “Cell Culture.” After compound treatment, total RNA was extracted using a Quick-RNA Miniprep Kit (Zymo) per the manufacturer's instructions. […] RT-qPCR was performed on a QuantStudio5™ Real-Time PCR Instrument (Applied Biosystems) using Power SYBR Green Master Mix (Applied Biosystems), and the resulting data were analyzed using the ΔΔCt method.

CNC(=O)[C@H](c1ccccc1)N(C)Cc1ccc(-c2cccc(-c3sccc3NC(=O)CCOCCOCCOCCC(=O)NCCN3CCN(c4ccc5nc(-c6c(N)c7c(F)cccc7[nH]c6=O)[nH]c5c4)CC3)c2)cc1 [RiboTAC 7, (S)—N-(2-(4-(2-(4-amino-5-fluoro-2-oxo-1,2-dihydroquinolin-3-yl)-1H-benzo[d]imidazol-6-yl)piperazin-1-yl)ethyl)-3-(2-(2-(3-((2-(4′-((methyl(2-(methylamino)-2-oxo-1-phenylethyl)amino)methyl)-[1,1′-biphenyl]-3-yl)thiophen-3-yl)amino)-3-oxopropoxy)ethoxy)ethoxy)propanamide]
miRNA profiling selectivity [1]: selectively down-regulated miR-21 across the transcriptome
enhancement of PDCD4 levels ([2]; 5 nM of 7 and 100 nM of the LNA as printed): ~40%
increase of PDCD4 protein levels ([2]; 5 μM, CRISPR-Control sgRNA MDA-MB-231 cells): ~40%
reduction of mature miR-21 abundance [3]: ~40%
